What was measured:
C57BL/6J mice = test: Discrete-trials temporal discrimination task; assay type: in vivo, mouse
5-HT2A [1] = conditions: in humans; ref Almaula et al., 1996; Pigott et al., 2012; Canal et al., 2013; cited from earlier work
5-HT2A [2] = conditions: in mice; ref Canal et al., 2013; cited from earlier work
5-HT2A [3] = conditions: ref Kehne et al., 1996; cited from earlier work
[4] = DOI 0.3 mg/kg IP, 10 min before session
[5] = DOI 1 mg/kg IP, 10 min before session
[6] = DOI 3 mg/kg IP, 10 min before session, dose-response experiment
[7] = M100907 blockade experiment: vehicle pretreatment, DOI 3 mg/kg IP
[8] = SB-242,084 blockade experiment: vehicle pretreatment, DOI 3 mg/kg IP
[9] = M100907 0.03 mg/kg SC, 10 min before session
[10] = M100907 0.1 mg/kg SC, 10 min before session
[11] = M100907 0.3 mg/kg SC, 10 min before session

## COc1cc(CC(C)N)c(OC)cc1I.Cl (stereo not drawn) [DOI, 1-(2,5-dimethoxy-4-iodophenyl)-2-aminopropane hydrochloride]
C57BL/6J mice; [4]
  Difference limen: 1.20 ± 0.12 s
  Slope (ε): 1.009±0.108
  T50: 6.36 ± 0.17 s
  Trials completed: 188.3±2.7
C57BL/6J mice; DOI 0.3 mg/kg IP, 10 min before session, mean±SEM
  Weber fraction: 0.192±0.022
C57BL/6J mice; [5]
  Difference limen: 1.29 ± 0.14 s
  Slope (ε): 0.968±0.133
  T50: 6.43 ± 0.13 s
  Trials completed: 174.6±5.4
  Weber fraction: 0.200±0.021
C57BL/6J mice; [6]
  Difference limen: 1.89 ± 0.14 s
  Slope (ε): 0.608±0.044
  T50: 7.08 ± 0.41 s
  Weber fraction: 0.275±0.030
C57BL/6J mice; DOI 3 mg/kg IP, 6.1, 7.8, 8.7 and 10.5 s after trial onset, dose-response experiment
  %B responding (proportional choice of lever B): significant reductions in %B responding
C57BL/6J mice; DOI 3 mg/kg IP, 6.9, 7.8, 9.6 and 10.5 s trials, M100907 blockade experiment
  %B responding (proportional choice of lever B): reduced %B responding
C57BL/6J mice; [7]
  Difference limen: 1.71 ± 0.14 s
  Slope (ε): 0.661±0.044
  T50: 7.35 ± 0.20 s
  Trials completed: 148.3±8.8
  Weber fraction: 0.233±0.018
C57BL/6J mice; [8]
  Difference limen: 1.74 ± 0.16 s
  Slope (ε): 0.713±0.101
  T50: 6.89 ± 0.31 s
  Trials completed: 142.5±8.8
  Weber fraction: 0.255±0.026
C57BL/6J mice; after drug treatment that reduced %B responding at long stimulus intervals
  Correct responding during the 10.5 s-trials: more than 80%
5-HT2A [1]
  Selectivity for 5-HT2A: ~ 5 fold
5-HT2A [2]
  Selectivity for 5-HT2A vs. 5-HT2C receptors: 12 fold

## COc1cccc([C@H](O)C2CCN(CCc3ccc(F)cc3)CC2)c1OC [M100907, (R)-(+)-α-(2,3-dimethoxyphenyl)-1-[2-(4-fluorophenyl)ethyl]-4-piperidinemethanol]
C57BL/6J mice; M100907 0.03 mg/kg SC pretreatment, DOI 3 mg/kg IP
  Effect of pretreatment on the T50 increase produced by DOI: failed to completely block the T50 increase produced by DOI
C57BL/6J mice; M100907 0.03 mg/kg SC pretreatment, DOI 3 mg/kg IP, 6.9 and 10.5 s stimuli
  Effect of pretreatment on the response to DOI (%B responding): blocked the effect of DOI on %B responding
C57BL/6J mice; [9]
  Difference limen: 1.31 ± 0.25 s
  Slope (ε): 0.997±0.114
  T50: 6.42 ± 0.23 s
  Trials completed: 163.6±6.5
C57BL/6J mice; M100907 0.03 mg/kg SC, 10 min before session, mean±SEM
  Weber fraction: 0.214±0.051
C57BL/6J mice; [10]
  Difference limen: 1.48 ± 0.15 s
  Slope (ε): 0.791±0.070
  T50: 6.80 ± 0.37 s
  Trials completed: 155.4±7.4
C57BL/6J mice; M100907 0.1 mg/kg SC, 10 min before session, mean±SEM
  Weber fraction: 0.220±0.021
C57BL/6J mice; [11]
  Difference limen: 1.60 ± 0.20 s
  Slope (ε): 0.857±0.184
C57BL/6J mice; M100907 0.3 mg/kg SC, 10 min before session, 0.3 mg/kg
  T50: 7.71 ± 0.45 s
C57BL/6J mice; M100907 0.3 mg/kg SC, 10 min before session, mean±SEM
  Weber fraction: 0.206±0.021
5-HT2A [3]
  Affinity for 5-HT2A: subnanomolar
  Fold lower affinity for 5-HT2C and α1 receptors than for 5-HT2A: at least 100 fold
5-HT2A [2]
  Selectivity for 5-HT2A vs. 5-HT2C receptors: 165 fold

From PMC5403251 (Neuropharmacology, 2016)
